Test system: Saccharomyces cerevisiae wild type strain BY4743
Experiment: AF1 yeast metabolite analysis by GC-MS and LC-MS
Type: cell-based
Conditions: for Fold Change, NacetylLglutamate: detected metabolite NacetylLglutamate; for Fold Change, NacetylLornithine: detected metabolite NacetylLornithine; for Fold Change, nicotinic acid: detected metabolite nicotinic acid; for Fold Change, nopaline: detected metabolite nopaline; for Fold Change, oleic acid: detected metabolite oleic acid; for Fold Change, ornithine: detected metabolite ornithine; for Fold Change, phenylalanine: detected metabolite phenylalanine; for Fold Change, phosphoenolpyruvate: detected metabolite phosphoenolpyruvate; for Fold Change, pipecolic acid: detected metabolite pipecolic acid; for Fold Change, proline: detected metabolite proline; for Fold Change, pyridoxine: detected metabolite pyridoxine; for Fold Change, selenoDLmethionine: detected metabolite selenoDLmethionine; for Fold Change, serine: detected metabolite serine; for Fold Change, sugar-phosphate: detected metabolite sugar-phosphate; for Fold Change, tetradecanoic acid: detected metabolite tetradecanoic acid; for Fold Change, threonine/homoserin: detected metabolite threonine/homoserin; for Fold Change, thymine: detected metabolite thymine; for Fold Change, tryptophan: detected metabolite tryptophan; for Fold Change, tyrosine: detected metabolite tyrosine; for Fold Change, urocanic acid: detected metabolite urocanic acid; for Fold Change, valine: detected metabolite valine; for Fold Change, zeatin: detected metabolite zeatin

Structure (SMILES): CC[C@@H]([C@H](C)O)n1ncn(-c2ccc(N3CCN(c4ccc(OC[C@@H]5CO[C@@](Cn6cncn6)(c6ccc(F)cc6F)C5)cc4)CC3)cc2)c1=O [Posaconazole]
- Fold Change of alanine (GC): 1.035
- Fold Change of asparagine (GC): 0.145
- Fold Change of aspartic acid (GC): −0.071
- Fold Change of campesterol (GC): 0
- Fold Change of desmosterol (GC): 0
- Fold Change of disaccaride1 (GC): 0.04733
- Fold Change of disaccaride2 (GC): 0.313
- Fold Change of disaccaride3 (GC): 0.3407
- Fold Change of ergosterol (GC): 0.808
- Fold Change of fucosterol (GC): 6.722
- Fold Change of glutamine (GC): 0.6439
- Fold Change of glycanopyrose (GC): 1.594
- Fold Change of glycerol (GC): 0.1873
- Fold Change of glycine (GC): 0.08267
- Fold Change of hexadecanoic acid (GC): −0.01867
- Fold Change of iso citric acid (GC): 0.4
- Fold Change of isoleucine (GC): 0.1023
- Fold Change of lanosterol (GC): 7.464
- Fold Change of leucine (GC): 0.334
- Fold Change of lysine (GC): 0.1586
- Fold Change of malic acid (GC): 0.2942
- Fold Change of biotin (LC): 0
- Fold Change of folic acid (LC): 0
- Fold Change, NacetylDglucosamine (detected metabolite NacetylDglucosamine, platform nLC): 0
- Fold Change, NacetylLglucosamine (detected metabolite NacetylLglucosamine, platform pLC): 0
- Fold Change, NacetylLglutamate (platform nLC): −0.07165
- Fold Change, NacetylLglutamate (platform pLC): 0
- Fold Change, NacetylLornithine (platform nLC): 0
- Fold Change, NacetylLornithine (platform pLC): 0.1338
- Fold Change, TMS mevalonic acid lactone (detected metabolite TMS mevalonic acid lactone, platform GC): −0.3118
- Fold Change, mevalonic acid lactone (detected metabolite mevalonic acid lactone, platform GC): 0.5555
- Fold Change, mevalonic lactone (detected metabolite mevalonic lactone, platform pLC): −0.08368
- Fold Change, niacinamide (detected metabolite niacinamide, platform pLC): 0
- Fold Change, nicotinic acid (platform nLC): 1.421
- Fold Change, nicotinic acid (platform pLC): −0.8142
- Fold Change, nopaline (platform nLC): 0.7554
- Fold Change, nopaline (platform pLC): 0
- Fold Change, octadecanoic acid (detected metabolite octadecanoic acid, platform GC): 0.321
- Fold Change, oleic acid (platform GC): −0.5057
- Fold Change, oleic acid (platform nLC): 0.5606
- Fold Change, ornithine2 (detected metabolite ornithine2, platform GC): −0.1383
- Fold Change, ornithine3 (detected metabolite ornithine3, platform GC): 0.041
- Fold Change, ornithine (platform nLC): 2.314
- Fold Change, ornithine (platform pLC): 0.4314
- Fold Change, orotic acid (detected metabolite orotic acid, platform nLC): 0
- Fold Change, palmiteliadic acid (detected metabolite palmiteliadic acid, platform GC): −0.2453
- Fold Change, palmitic acid (detected metabolite palmitic acid, platform nLC): 0.1518
- Fold Change, phenylalanine (platform GC): 0.06069
- Fold Change, phenylalanine (platform nLC): −0.03702
- Fold Change, phenylalanine (platform pLC): −0.1585
- Fold Change, phenylpyruvic acid (detected metabolite phenylpyruvic acid, platform nLC): 0
- Fold Change, phosphate (detected metabolite phosphate, platform GC): −0.1833
- Fold Change, phosphoenolpyruvate (platform LC): 0
- Fold Change, phosphoenolpyruvate (platform nLC): 0
- Fold Change, pinitol (detected metabolite pinitol, platform nLC): 0
- Fold Change, pipecolic acid (platform nLC): 0.1806
- Fold Change, pipecolic acid (platform pLC): 0.3444
- Fold Change, progesterone (detected metabolite progesterone, platform pLC): 0
- Fold Change, proline (platform LC): 0.3157
- Fold Change, proline (platform nLC): 0.3147
- Fold Change, pyridoxine (platform nLC): −0.1015
- Fold Change, pyridoxine (platform pLC): −0.239
- Fold Change, pyrimidine (detected metabolite pyrimidine, platform GC): 0.159
- Fold Change, retinoic acid (detected metabolite retinoic acid, platform nLC): 0
- Fold Change, riboflavin (detected metabolite riboflavin, platform pLC): 0
- Fold Change, salicylic/HObenzoic (detected metabolite salicylic/HObenzoic, platform nLC): 0
- Fold Change, selenoDLmethionine (platform nLC): −0.6722
- Fold Change, selenoDLmethionine (platform pLC): −0.7083
- Fold Change, serine (platform nLC): 0.152
- Fold Change, serine (platform pLC): 0.2417
- Fold Change, shikimic acid (detected metabolite shikimic acid, platform nLC): 0
- Fold Change, sinapinic acid (detected metabolite sinapinic acid, platform nLC): 0
- Fold Change, sorbitol/mannitol (detected metabolite sorbitol/mannitol, platform nLC): 0.009121
- Fold Change, squalene (detected metabolite squalene, platform GC): 0.07431
- Fold Change, succinic (detected metabolite succinic, platform nLC): −0.06141
- Fold Change, sucrose (detected metabolite sucrose, platform nLC): 0.1847
- Fold Change, sugar-phosphate (platform nLC): −0.04543
- Fold Change, sugar-phosphate (platform pLC): 0
- Fold Change (detected metabolite sugar?, platform GC): 0.6923
- Fold Change, tetradecanoic acid (platform GC): −0.214
- Fold Change, tetradecanoic acid (platform nLC): 1.029
- Fold Change, thiamine (detected metabolite thiamine, platform pLC): 0
- Fold Change, threonine2 (detected metabolite threonine2, platform GC): 0.457
- Fold Change, threonine3 (detected metabolite threonine3, platform GC): 0.225
- Fold Change, threonine/homoserin (platform nLC): 0.04034
- Fold Change, threonine/homoserin (platform pLC): 0.1437
- Fold Change, thymine (platform nLC): 0
- Fold Change, thymine (platform pLC): 0
- Fold Change, tms glutamine3 (detected metabolite tms glutamine3, platform GC): 0.6709
- Fold Change, tms lysine4 (detected metabolite tms lysine4, platform GC): 0.05667
- Fold Change, tms tyrosine2 (detected metabolite tms tyrosine2, platform GC): 1.228
- Fold Change, tms tyrosine3 (detected metabolite tms tyrosine3, platform GC): 0.1911
- Fold Change, tryptophan (platform nLC): 4.676
- Fold Change, tryptophan (platform pLC): 0
- Fold Change, tyrosine (platform nLC): 0.0282
- Fold Change, tyrosine (platform pLC): 0.1008
- Fold Change, uracil (detected metabolite uracil, platform nLC): −0.2779
- Fold Change, uric acid (detected metabolite uric acid, platform pLC): 0
- Fold Change, uridine (detected metabolite uridine, platform nLC): 0.02855
- Fold Change, urocanic acid (platform nLC): 0
- Fold Change, urocanic acid (platform pLC): 0
- Fold Change, valine (platform GC): 0.345
- Fold Change, valine (platform nLC): 0.0195
- Fold Change, xanthosine(diH2O) (detected metabolite xanthosine(diH2O), platform pLC): 0
- Fold Change, xanthosineDiH2O (detected metabolite xanthosineDiH2O, platform nLC): 0
- Fold Change, zeatin (platform nLC): 0
- Fold Change, zeatin (platform pLC): 0
- Fold Change of 2-ketobutyric acid (nLC): −0.9992
- Fold Change of 2-ketoglutaric (nLC): 11.33
- Fold Change of 3-indolylacetonitri (nLC): −0.9998
- Fold Change of 4-methylcatechol (nLC): 0
- Fold Change of 4aminobutyrate/dimg (nLC): −0.008939
- Fold Change of 5hydroxyLtryptophan (nLC): 0
- Fold Change of 6-benzylaminopurine (nLC): 0
- Fold Change of DLaminoadipic acid (nLC): −0.9935
- Fold Change of abscisic acid (nLC): 0
- Fold Change of aconitic acid (nLC): 1.874
- Fold Change of adenine (nLC): 0
- Fold Change of adenosine (nLC): 128.3
- Fold Change of alanine (nLC): 0.1091
- Fold Change of allantoic acid (nLC): 0.3321
- Fold Change of allantoin (nLC): 5.97
- Fold Change of anthranilic acid (nLC): 0
- Fold Change of arginine (nLC): 0.1707
- Fold Change of argininosuccinate (nLC): 318.3
- Fold Change of asparagine (nLC): 0.006865
- Fold Change of aspartic (nLC): 0.305
- Fold Change of benzoic acid (nLC): 0
- Fold Change of biotin (nLC): −0.9992
- Fold Change of caffeic acid (nLC): −0.49
- Fold Change of catechol (nLC): 0
- Fold Change of cinnamic acid (nLC): 0
- Fold Change of citricanoic/itaconi (nLC): 0
- Fold Change of citrulline (nLC): 1160
- Fold Change of coumaric acid (nLC): 0
- Fold Change of cytidine (nLC): −0.9986
- Fold Change of cytosine (nLC): 0
- Fold Change of decanoic acid (nLC): 0.1263
- Fold Change of diaminopimelic acid (nLC): 0
- Fold Change of dihydrofolic acid (nLC): 0
- Fold Change of estrone (nLC): 0
- Fold Change of farnesol (nLC): 0
- Fold Change of folic acid (nLC): 0
- Fold Change of fumaric/3m2oxobutan (nLC): −0.9997
- Fold Change of gallic acid (nLC): 0.4414
- Fold Change of gibberellic (nLC): 0
- Fold Change of glucosamine6PO4 (nLC): −0.9951
- Fold Change of glutamic/acetylseri (nLC): 0.3222
- Fold Change of glutamine/lysine (nLC): 0.09814
- Fold Change of guanine (nLC): 0
- Fold Change of guanosine (nLC): −0.993
- Fold Change of histidine (nLC): 0
- Fold Change of homogentisic/uric (nLC): 0
- Fold Change of hydrocortisone (nLC): 0
- Fold Change of hypoxanthine (nLC): 0.1751
- Fold Change of indole3pyruvic acid (nLC): 0
- Fold Change of inostol/glucos/sorb (nLC): −0.493
- Fold Change of isocitric/citric/qu (nLC): 1.711
- Fold Change of jasmonic acid (nLC): 0
- Fold Change of kinetin (nLC): 0
- Fold Change of lactic acid (nLC): 0.5987
- Fold Change of lauric acid (nLC): 0.9833
- Fold Change of leucine/isoleucine/ (nLC): 0.03158
- Fold Change of luteolin (nLC): 0
- Fold Change of malic acid (nLC): 0.3101
- Fold Change of malonic acid (nLC): 0
- Fold Change of menthol* (nLC): 0.08121
- Fold Change of methionine (nLC): 0
- Fold Change of 4-aminobenzoic acid (pLC): 0
- Fold Change of 4-methylcatechol (pLC): 0
- Fold Change of 4ambutyrate/dimglyc (pLC): 31.37
- Fold Change of 5hydroxyLtryptophan (pLC): 0
- Fold Change of 6benzylaminopurine (pLC): 0
- Fold Change of DL-aminoadipic acid (pLC): 1.685
- Fold Change of abscisic acid (pLC): 0
- Fold Change of adenine (pLC): −0.0145
- Fold Change of adenosine (pLC): 0
- Fold Change of alanine/sarcosine (pLC): 0.1013
- Fold Change of allantoic acid (pLC): 0
- Fold Change of anthranilic acid (pLC): 0
- Fold Change of arginine (pLC): 0.03383
- Fold Change of argininosuccinate (pLC): 0
- Fold Change of asparagine (pLC): 0.4302
- Fold Change of aspartic acid (pLC): 0.3626
- Fold Change of caffeine (pLC): 0
- Fold Change of citric acid TME (pLC): 0
- Fold Change of citrulline (pLC): 0.1011
- Fold Change of cytidine (pLC): 0
- Fold Change of cytosine (pLC): 1135
- Fold Change of diaminopimelic acid (pLC): 0
- Fold Change of dihydrofolic acid (pLC): 0
- Fold Change of dipicolinic acid (pLC): 0
- Fold Change of glucosamine (pLC): 0
- Fold Change of glucosamine6PO4 (pLC): 0
- Fold Change of glutamate (pLC): 0.3769
- Fold Change of glutamine/lysine (pLC): 0.303
- Fold Change of glutathione (pLC): 0.0101
- Fold Change of guanosine (pLC): 0.04655
- Fold Change of histidine (pLC): 0
- Fold Change of hydrocortisone (pLC): 0
- Fold Change of hypoxanthine (pLC): 0.135
- Fold Change of itaconic acid dimes (pLC): 0
- Fold Change of kinetin (pLC): 0
- Fold Change of leucine/isoleucine/ (pLC): 0.04937
- Fold Change of mannitol (pLC): 0.3919
- Fold Change of methionine (pLC): −0.3997

Reference: patent US20040018501A1, “Methods and systems for analyzing complex biological systems” (priority 2001, published 2004)
